Assay results taken from patent publication US8329755B2, “Methods for treating retroviral infections” (Roche Palo Alto LLC, priority 2004, dated 2012).

Compound | melting point
Cc1cc(S(N)(=O)=O)ccc1NC(=O)Cc1ccc(Cl)c(Oc2cc(C#N)cc(C(F)(F)F)c2)c1 [Compound I-89, 2-[4-Chloro-3-(3-cyano-5-trifluoromethyl-phenoxy)-phenyl]-N-(2-methyl-4-sulfamoyl-phenyl)-acetamide] | 211.6 to 214.6 °C
N#Cc1cc(Oc2cc(CC(=O)Nc3ccc(S(N)(=O)=O)cc3Cl)ccc2Cl)cc(C(F)(F)F)c1 [Compound I-90, 2-[4-Chloro-3-(3-cyano-5-trifluoromethyl-phenoxy)-phenyl]-N-(2-chloro-4-sulfamoyl-phenyl)-acetamide] | 198 to 202 °C
CCc1ccc(CC(=O)Nc2ccc(S(N)(=O)=O)cc2)cc1Oc1cc(C#N)cc(C(F)F)c1 [Compound I-91, 2-[3-(3-Cyano-5-difluoromethyl-phenoxy)-4-ethyl-phenyl]-N-(4-sulfamoyl-phenyl)-acetamide] | 188 to 198 °C
COc1ccc(CC(=O)Nc2ccc(S(N)(=O)=O)cc2)cc1Oc1cc(C#N)cc(C(F)F)c1 [Compound I-92, 2-[3-(3-Cyano-5-difluoromethyl-phenoxy)-4-methoxy-phenyl]-N-(4-sulfamoyl-phenyl)-acetamide] | 213.9 to 214.2 °C
COc1ccc(CC(=O)Nc2ccc(S(N)(=O)=O)cc2C)cc1Oc1cc(C#N)cc(C(F)F)c1 [Compound I-93, 2-[3-(3-Cyano-5-difluoromethyl-phenoxy)-4-methoxy-phenyl]-N-(2-methyl-4-sulfamoyl-phenyl)-acetamide] | 175 to 177.2 °C
COc1ccc(CC(=O)Nc2ccc(S(N)(=O)=O)cc2Cl)cc1Oc1cc(C#N)cc(C(F)F)c1 [Compound I-94, N-(2-Chloro-4-sulfamoyl-phenyl)-2-[3-(3-cyano-5-difluoromethyl-phenoxy)-4-methoxy-phenyl]-acetamide] | 185 to 187.9 °C
CC(F)(F)c1cc(C#N)cc(Oc2c(Cl)ccc(CC(=O)Nc3ccc(S(N)(=O)=O)cc3)c2F)c1 [Compound I-95, 2-{4-Chloro-3-[3-cyano-5-(1,1-difluoro-ethyl)-phenoxy]-2-fluoro-phenyl}-N-(4-sulfamoyl-phenyl)-acetamide] | 207 to 209.8 °C
Cc1cc(S(N)(=O)=O)ccc1NC(=O)Cc1ccc(Cl)c(Oc2cc(C#N)cc(C(C)(F)F)c2)c1F [Compound I-96, 2-{4-Chloro-3-[3-cyano-5-(1,1-difluoro-ethyl)-phenoxy]-2-fluoro-phenyl}-N-(2-methyl-4-sulfamoyl-phenyl)-acetamide] | 198.5 to 201 °C
CC(F)(F)c1cc(C#N)cc(Oc2c(Cl)ccc(CC(=O)Nc3ccc(S(N)(=O)=O)cc3Cl)c2F)c1 [Compound I-97, 2-{4-Chloro-3-[3-cyano-5-(1,1-difluoro-ethyl)-phenoxy]-2-fluoro-phenyl}-N-(2-chloro-4-sulfamoyl-phenyl)-acetamide] | 192 to 197.6 °C
CCC(=O)N(C)S(=O)(=O)c1ccc(NC(=O)Cc2ccc(Cl)c(Oc3cc(Cl)cc(C#N)c3)c2F)c(C)c1 [Compound I-99, 2-[4-Chloro-3-(3-chloro-5-cyano-phenoxy)-2-fluoro-phenyl]-N-[2-methyl-4-(methyl-propionyl-sulfamoyl)-phenyl]-acetamide] | 212 to 216.9 °C
N#Cc1cc(Cl)cc(Oc2c(Cl)ccc(CC(=O)Nc3ccc(S(N)(=O)=O)cc3Cl)c2F)c1 [Compound I-100, 2-[4-Chloro-3-(3-chloro-5-cyano-phenoxy)-2-fluoro-phenyl]-N-(2-chloro-4-sulfamoyl-phenyl)-acetamide] | 234.4 to 234.9 °C
COc1cc(CC(=O)Nc2ccc(S(N)(=O)=O)cc2)cc(Oc2cc(C#N)ccc2Cl)c1 [Compound I-102, 2-[3-(2-Chloro-5-cyano-phenoxy)-5-methoxy-phenyl]-N-(4-sulfamoyl-phenyl)-acetamide] | 180.5 to 181.3 °C
COc1cc(CC(=O)Nc2ccc(S(N)(=O)=O)cc2C)cc(Oc2cc(C#N)ccc2Cl)c1 [Compound I-103, 2-[3-(2-Chloro-5-cyano-phenoxy)-5-methoxy-phenyl]-N-(2-methyl-4-sulfamoyl-phenyl)-acetamide] | 179.8 to 184 °C
CCc1cc(CC(=O)Nc2ccc(S(N)(=O)=O)cc2C)cc(Oc2cc(C#N)ccc2Cl)c1 [Compound I-106, 2-[3-(2-Chloro-5-cyano-phenoxy)-5-ethyl-phenyl]-N-(2-methyl-4-sulfamoyl-phenyl)-acetamide] | 231.6 to 233.1 °C
CCc1cc(CC(=O)Nc2ccc(S(N)(=O)=O)cc2Cl)cc(Oc2cc(C#N)ccc2Cl)c1 [Compound I-107, 2-[3-(2-Chloro-5-cyano-phenoxy)-5-ethyl-phenyl]-N-(2-chloro-4-sulfamoyl-phenyl)-acetamide] | 204 to 207 °C
CNS(=O)(=O)c1ccc(NC(=O)Cc2ccc(Cl)c(Oc3cc(Cl)cc(C#N)c3)c2F)c(C)c1 [Compound I-108, 2-[4-Chloro-3-(3-chloro-5-cyano-phenoxy)-2-fluoro-phenyl]-N-(2-methyl-4-methylsulfamoyl-phenyl)-acetamide] | 204.4 to 207.3 °C

Compound | melting point
N#Cc1cc(Cl)cc(Oc2c(Br)ccc(CC(=O)Nc3ccc(S(N)(=O)=O)cc3Cl)c2F)c1 [Compound I-109, 2-[4-Bromo-3-(3-chloro-5-cyano-phenoxy)-2-fluoro-phenyl]-N-(2-chloro-4-sulfamoyl-phenyl)-acetamide] | 165 to 166.6 °C
Cc1ccc(CC(=O)Nc2ccc(C(=O)O)cc2Cl)c(F)c1Oc1cc(C#N)cc(C(F)F)c1 [Compound I-110, 3-Chloro-4-{2-[3-(3-cyano-5-difluoromethyl-phenoxy)-2-fluoro-4-methyl-phenyl]-acetylamino}-benzoic acid] | 216.9 to 218.3 °C
CN(C(=O)Cc1ccc(Cl)c(Oc2cc(Cl)cc(C#N)c2)c1F)c1ccccc1Cl [Compound I-111, 2-[4-Chloro-3-(3-chloro-5-cyano-phenoxy)-2-fluoro-phenyl]-N-(2-chloro-phenyl)-N-methyl-acetamide] | 134 to 137.1 °C
Cc1ccc(CC(=O)Nc2ccc(S(C)(=O)=O)cc2Cl)c(F)c1Oc1cc(C#N)cc(C(F)F)c1 [Compound I-112, N-(2-Chloro-4-methanesulfonyl-phenyl)-2-[3-(3-cyano-5-difluoromethyl-phenoxy)-2-fluoro-4-methyl-phenyl]-acetamide] | 179.9 to 182 °C
N#Cc1cc(Oc2c(F)c(CC(=O)Nc3ccc(S(N)(=O)=O)cc3)cc(Br)c2Br)cc(C(F)F)c1 [Compound I-114, 2-[4,5-Dibromo-3-(3-cyano-5-difluoromethyl-phenoxy)-2-fluoro-phenyl]-N-(4-sulfamoyl-phenyl)-acetamide] | 144 to 147 °C
Cc1cc(S(=O)(=O)N2CCSCC2)ccc1NC(=O)Cc1ccc(C)c(Oc2cc(Cl)cc(C#N)c2)c1 [Compound I-117, 2-[3-(3-Chloro-5-cyano-phenoxy)-4-methyl-phenyl]-N-[2-methyl-4-(thiomorpholine-4-sulfonyl)-phenyl]-acetamide] | 151.9 to 155.3 °C
Cc1cc(S(=O)(=O)NCCN2CCOCC2)ccc1NC(=O)Cc1ccc(C)c(Oc2cc(Cl)cc(C#N)c2)c1 [Compound I-118, 2-[3-(3-Chloro-5-cyano-phenoxy)-4-methyl-phenyl]-N-[2-methyl-4-(2-morpholin-4-yl-ethylsulfamoyl)-phenyl]-acetamide] | 177 to 181 °C
Cc1cc(S(N)(=O)=O)ccc1NC(=O)Cc1ccc(Cl)c(Oc2cc(C#N)cc(C(F)(F)F)c2)c1F [Compound I-120, 2-[4-Chloro-3-(3-cyano-5-trifluoromethyl-phenoxy)-2-fluoro-phenyl]-N-(2-methyl-4-sulfamoyl-phenyl)-acetamide] | 212 to 216.1 °C
Cc1cc(S(=O)(=O)NC2CCC(O)CC2)ccc1NC(=O)Cc1ccc(C)c(Oc2cc(Cl)cc(C#N)c2)c1 (centres unmarked) [Compound I-121, 2-[3-(3-Chloro-5-cyano-phenoxy)-4-methyl-phenyl]-N-[4-(4-hydroxy-cyclohexylsulfamoyl)-2-methyl-phenyl]-acetamide] | 195.1 to 197.7 °C
Cc1cc(S(N)(=O)=O)ccc1NC(=O)Cc1ccc(C)c(Oc2cc(Cl)cc(C#N)c2)c1 [Compound I-122, 2-[3-(3-Chloro-5-cyano-phenoxy)-4-methyl-phenyl]-N-(2-methyl-4-sulfamoyl-phenyl)-acetamide] | 192.8 to 194.1 °C
Cc1ccc(CC(=O)Nc2ccc(S(N)(=O)=O)cc2Cl)cc1Oc1cc(Cl)cc(C#N)c1 [Compound I-123, 2-[3-(3-Chloro-5-cyano-phenoxy)-4-methyl-phenyl]-N-(2-chloro-4-sulfamoyl-phenyl)-acetamide] | 194 to 194.9 °C
Cc1cc(C#N)cc(Oc2c(Cl)ccc(CC(=O)Nc3ccc(S(N)(=O)=O)cc3C)c2F)n1 [Compound I-124, 2-[4-Chloro-3-(4-cyano-6-methyl-pyridin-2-yloxy)-2-fluoro-phenyl]-N-(2-methyl-4-sulfamoyl-phenyl)-acetamide] | 230.1 to 230.7 °C
Cc1cc(S(=O)(=O)CCC(=O)O)ccc1NC(=O)Cc1ccc(C)c(Oc2cc(Cl)cc(C#N)c2)c1 [Compound I-125, 3-(4-{2-[3-(3-Chloro-5-cyano-phenoxy)-4-methyl-phenyl]-acetylamino}-3-methyl-benzenesulfonyl)-propionic acid] | 74.3 to 76.5 °C
CC(C)[C@H](N)C(=O)NS(=O)(=O)c1ccc(NC(=O)Cc2ccc(Cl)c(Oc3cc(Cl)cc(C#N)c3)c2F)c(Cl)c1.[Na] [Compound I-127, N-[4-((S)-2-Amino-3-methyl-butyrylsulfamoyl)-2-chloro-phenyl]-2-[4-chloro-3-(3-chloro-5-cyano-phenoxy)-2-fluoro-phenyl]-acetamide; sodium salt] | 219.4 to 220.2 °C
Cc1cc(S(=O)(=O)NC2CCOCC2)ccc1NC(=O)Cc1ccc(C)c(Oc2cc(Cl)cc(C#N)c2)c1 [Compound I-128, 2-[3-(3-Chloro-5-cyano-phenoxy)-4-methyl-phenyl]-N-[2-methyl-4-(tetrahydro-pyran-4-ylsulfamoyl)-phenyl]-acetamide] | 171.7 to 172.6 °C
Cc1cc(S(=O)(=O)NCC(C)O)ccc1NC(=O)Cc1ccc(C)c(Oc2cc(Cl)cc(C#N)c2)c1 (centres unmarked) [Compound I-129, 2-[3-(3-Chloro-5-cyano-phenoxy)-4-methyl-phenyl]-N-[4-(2-hydroxy-propylsulfamoyl)-2-methyl-phenyl]-acetamide] | 172.2 to 173.4 °C
